This passage reports AC50 results from ChEMBL document CHEMBL5291721, “A preclinical secondary pharmacology resource illuminates target-adverse drug reaction associations of marketed drugs” (Nat Commun, 2023).

Targets include Mu-type opioid receptor (Homo sapiens, UniProt P35372); D(3) dopamine receptor (Homo sapiens, UniProt P35462); Histamine H3 receptor (Homo sapiens, UniProt Q9Y5N1).
In the next experiment the target is T1, Adenosine receptor A1 (Homo sapiens, UniProt P30542).
T1 sequence (P30542 whole entry): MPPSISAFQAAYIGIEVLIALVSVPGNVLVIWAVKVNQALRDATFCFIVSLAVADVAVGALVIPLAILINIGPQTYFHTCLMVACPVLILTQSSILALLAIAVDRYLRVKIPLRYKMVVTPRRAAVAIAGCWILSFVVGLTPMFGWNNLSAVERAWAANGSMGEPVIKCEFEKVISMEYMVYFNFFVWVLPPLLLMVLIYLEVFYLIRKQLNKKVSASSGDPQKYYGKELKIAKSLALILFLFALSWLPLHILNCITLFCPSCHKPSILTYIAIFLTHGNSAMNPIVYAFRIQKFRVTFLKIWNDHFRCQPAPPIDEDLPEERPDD

For another experiment, the target named is T2, Adenosine receptor A3 (Homo sapiens, UniProt P0DMS8).
T2 sequence (P0DMS8 whole entry): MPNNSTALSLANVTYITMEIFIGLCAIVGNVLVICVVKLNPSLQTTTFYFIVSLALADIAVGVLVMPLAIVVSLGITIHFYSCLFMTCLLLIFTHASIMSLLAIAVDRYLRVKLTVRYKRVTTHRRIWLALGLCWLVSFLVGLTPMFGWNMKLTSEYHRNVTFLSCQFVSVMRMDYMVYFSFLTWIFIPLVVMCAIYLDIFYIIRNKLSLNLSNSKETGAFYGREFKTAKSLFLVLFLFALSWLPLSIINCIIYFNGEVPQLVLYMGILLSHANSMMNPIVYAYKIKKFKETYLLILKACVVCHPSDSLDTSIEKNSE

Experiment [1] addresses T3, Alpha-1A adrenergic receptor (Homo sapiens, UniProt P35348).
T3 sequence (P35348 whole entry): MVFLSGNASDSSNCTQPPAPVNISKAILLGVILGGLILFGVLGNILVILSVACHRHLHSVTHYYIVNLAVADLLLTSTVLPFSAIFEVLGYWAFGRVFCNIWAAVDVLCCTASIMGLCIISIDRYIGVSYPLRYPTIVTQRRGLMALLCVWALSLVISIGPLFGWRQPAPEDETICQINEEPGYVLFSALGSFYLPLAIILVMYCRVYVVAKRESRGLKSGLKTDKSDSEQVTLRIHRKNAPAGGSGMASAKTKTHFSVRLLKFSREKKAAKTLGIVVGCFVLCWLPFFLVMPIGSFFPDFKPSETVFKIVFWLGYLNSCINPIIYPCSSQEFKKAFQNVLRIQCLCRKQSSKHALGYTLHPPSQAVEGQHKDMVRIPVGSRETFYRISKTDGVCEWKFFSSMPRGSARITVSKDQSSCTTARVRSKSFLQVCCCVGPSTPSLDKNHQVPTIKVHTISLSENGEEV

Experiment [2] deals with Voltage-dependent L-type calcium channel subunit alpha-1C (Rattus norvegicus, UniProt P22002). Format: functional.
Experiment [3] deals with 5-hydroxytryptamine receptor 2A (Homo sapiens, UniProt P28223). In kind it is functional, cell-based.
In experiment [4] the target is T4, 5-hydroxytryptamine receptor 2B (Homo sapiens, UniProt P41595). Format: functional, cell-based.
Experiment [5] has as its target T4, 5-hydroxytryptamine receptor 2B. In kind it is functional, cell-based. The source holds these as a separate data set.
Experiment [6] deals with T5, 5-hydroxytryptamine receptor 3A (Homo sapiens, UniProt P46098).
T5 sequence (P46098 whole entry): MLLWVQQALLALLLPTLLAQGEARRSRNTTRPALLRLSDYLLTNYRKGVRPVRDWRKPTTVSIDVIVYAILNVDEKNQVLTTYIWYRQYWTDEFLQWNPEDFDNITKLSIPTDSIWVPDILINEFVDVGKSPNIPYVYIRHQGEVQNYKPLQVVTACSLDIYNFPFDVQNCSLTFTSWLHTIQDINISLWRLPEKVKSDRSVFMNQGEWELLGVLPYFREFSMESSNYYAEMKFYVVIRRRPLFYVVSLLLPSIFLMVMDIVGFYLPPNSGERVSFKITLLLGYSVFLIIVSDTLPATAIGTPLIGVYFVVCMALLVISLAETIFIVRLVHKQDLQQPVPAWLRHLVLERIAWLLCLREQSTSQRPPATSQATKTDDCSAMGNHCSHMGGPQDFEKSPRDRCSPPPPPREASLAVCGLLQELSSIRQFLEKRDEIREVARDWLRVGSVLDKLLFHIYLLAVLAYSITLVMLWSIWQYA
In kind it is functional.

Experiment [7] deals with 3',5'-cyclic-AMP phosphodiesterase 4D (Homo sapiens, UniProt Q08499). Format: functional.
Experiment [8] concerns the target T6, Prostaglandin G/H synthase 1 (Rattus norvegicus, UniProt Q63921).
T6 sequence (Q63921 whole entry): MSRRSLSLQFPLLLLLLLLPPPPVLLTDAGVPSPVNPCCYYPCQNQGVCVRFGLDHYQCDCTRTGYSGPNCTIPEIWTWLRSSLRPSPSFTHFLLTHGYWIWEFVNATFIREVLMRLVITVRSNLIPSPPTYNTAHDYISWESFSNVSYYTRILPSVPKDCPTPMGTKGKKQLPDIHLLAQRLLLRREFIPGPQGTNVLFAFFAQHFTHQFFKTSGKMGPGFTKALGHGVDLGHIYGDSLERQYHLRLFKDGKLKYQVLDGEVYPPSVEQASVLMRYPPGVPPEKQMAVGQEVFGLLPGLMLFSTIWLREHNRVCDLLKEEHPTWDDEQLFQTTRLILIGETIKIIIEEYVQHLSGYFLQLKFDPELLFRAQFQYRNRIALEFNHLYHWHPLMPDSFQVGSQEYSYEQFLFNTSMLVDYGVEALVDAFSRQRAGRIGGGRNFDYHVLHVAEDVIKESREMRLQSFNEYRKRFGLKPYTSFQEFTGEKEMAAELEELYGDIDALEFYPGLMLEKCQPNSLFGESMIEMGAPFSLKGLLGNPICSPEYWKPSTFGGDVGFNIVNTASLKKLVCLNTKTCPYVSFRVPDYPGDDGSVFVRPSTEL
Format: functional.

Another experiment concerns the target Cannabinoid receptor 1 (Homo sapiens, UniProt P21554). In kind it is functional, cell-based.
Note: assay procedure not described here.

D(3) dopamine receptor, sequence (P35462 whole entry): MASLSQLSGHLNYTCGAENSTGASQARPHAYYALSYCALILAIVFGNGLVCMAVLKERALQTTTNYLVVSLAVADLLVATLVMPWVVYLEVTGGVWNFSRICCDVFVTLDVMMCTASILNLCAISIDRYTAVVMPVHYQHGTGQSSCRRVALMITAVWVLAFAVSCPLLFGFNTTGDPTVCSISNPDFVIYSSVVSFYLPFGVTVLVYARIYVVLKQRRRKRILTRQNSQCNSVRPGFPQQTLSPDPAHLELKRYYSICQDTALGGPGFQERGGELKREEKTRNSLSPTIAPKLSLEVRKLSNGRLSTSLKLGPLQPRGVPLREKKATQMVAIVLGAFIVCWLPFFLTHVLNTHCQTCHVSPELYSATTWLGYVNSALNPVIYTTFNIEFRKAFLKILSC
5-hydroxytryptamine receptor 2A, sequence (P28223 whole entry): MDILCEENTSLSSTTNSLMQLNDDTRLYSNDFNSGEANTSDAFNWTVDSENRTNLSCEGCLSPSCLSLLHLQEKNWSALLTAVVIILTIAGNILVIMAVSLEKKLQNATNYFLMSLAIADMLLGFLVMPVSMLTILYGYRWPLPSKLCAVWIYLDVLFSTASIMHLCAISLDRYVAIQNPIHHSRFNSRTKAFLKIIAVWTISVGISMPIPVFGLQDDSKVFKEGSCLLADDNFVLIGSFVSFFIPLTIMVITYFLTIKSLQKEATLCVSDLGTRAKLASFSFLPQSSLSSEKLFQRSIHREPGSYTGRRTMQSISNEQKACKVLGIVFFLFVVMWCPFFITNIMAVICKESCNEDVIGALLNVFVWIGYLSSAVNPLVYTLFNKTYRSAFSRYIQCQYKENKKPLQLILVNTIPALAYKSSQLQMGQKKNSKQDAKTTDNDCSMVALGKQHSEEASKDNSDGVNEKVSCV
Mu-type opioid receptor, sequence (P35372 whole entry): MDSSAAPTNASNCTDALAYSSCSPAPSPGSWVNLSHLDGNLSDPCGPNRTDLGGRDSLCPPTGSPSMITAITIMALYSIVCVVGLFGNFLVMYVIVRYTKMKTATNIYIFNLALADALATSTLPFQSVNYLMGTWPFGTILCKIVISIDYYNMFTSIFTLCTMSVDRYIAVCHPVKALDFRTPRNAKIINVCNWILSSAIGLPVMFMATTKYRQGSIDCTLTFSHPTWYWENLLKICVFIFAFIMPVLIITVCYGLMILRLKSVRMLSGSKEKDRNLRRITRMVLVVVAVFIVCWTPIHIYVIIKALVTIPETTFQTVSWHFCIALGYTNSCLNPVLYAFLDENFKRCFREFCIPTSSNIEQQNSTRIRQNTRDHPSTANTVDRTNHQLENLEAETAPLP
Cannabinoid receptor 1, sequence (P21554 whole entry): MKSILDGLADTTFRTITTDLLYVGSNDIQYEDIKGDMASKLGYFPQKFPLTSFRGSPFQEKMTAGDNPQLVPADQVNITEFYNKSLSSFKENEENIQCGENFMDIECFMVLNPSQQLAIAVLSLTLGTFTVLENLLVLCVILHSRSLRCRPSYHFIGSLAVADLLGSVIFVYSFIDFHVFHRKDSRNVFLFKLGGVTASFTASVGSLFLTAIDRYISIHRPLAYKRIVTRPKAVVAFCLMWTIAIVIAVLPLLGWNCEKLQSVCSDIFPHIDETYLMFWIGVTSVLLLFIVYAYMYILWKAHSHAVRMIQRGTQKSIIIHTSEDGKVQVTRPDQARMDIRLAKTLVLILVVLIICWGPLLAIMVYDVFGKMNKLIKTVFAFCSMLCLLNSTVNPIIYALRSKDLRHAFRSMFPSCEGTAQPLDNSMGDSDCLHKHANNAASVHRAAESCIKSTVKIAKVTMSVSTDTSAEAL
T4 sequence (P41595 whole entry): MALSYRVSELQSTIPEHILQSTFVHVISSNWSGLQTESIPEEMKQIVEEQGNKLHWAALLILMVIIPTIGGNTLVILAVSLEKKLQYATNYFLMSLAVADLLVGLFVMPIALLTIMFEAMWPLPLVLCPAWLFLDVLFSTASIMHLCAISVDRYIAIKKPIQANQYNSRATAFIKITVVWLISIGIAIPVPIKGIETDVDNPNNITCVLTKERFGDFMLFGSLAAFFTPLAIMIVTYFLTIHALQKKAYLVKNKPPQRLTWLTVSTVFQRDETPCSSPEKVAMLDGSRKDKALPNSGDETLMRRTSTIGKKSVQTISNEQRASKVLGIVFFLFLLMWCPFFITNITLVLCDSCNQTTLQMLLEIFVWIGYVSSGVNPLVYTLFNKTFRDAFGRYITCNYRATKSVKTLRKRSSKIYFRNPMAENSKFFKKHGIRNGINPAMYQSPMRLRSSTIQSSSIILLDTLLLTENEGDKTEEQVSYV
3',5'-cyclic-AMP phosphodiesterase 4D, sequence (Q08499 whole entry): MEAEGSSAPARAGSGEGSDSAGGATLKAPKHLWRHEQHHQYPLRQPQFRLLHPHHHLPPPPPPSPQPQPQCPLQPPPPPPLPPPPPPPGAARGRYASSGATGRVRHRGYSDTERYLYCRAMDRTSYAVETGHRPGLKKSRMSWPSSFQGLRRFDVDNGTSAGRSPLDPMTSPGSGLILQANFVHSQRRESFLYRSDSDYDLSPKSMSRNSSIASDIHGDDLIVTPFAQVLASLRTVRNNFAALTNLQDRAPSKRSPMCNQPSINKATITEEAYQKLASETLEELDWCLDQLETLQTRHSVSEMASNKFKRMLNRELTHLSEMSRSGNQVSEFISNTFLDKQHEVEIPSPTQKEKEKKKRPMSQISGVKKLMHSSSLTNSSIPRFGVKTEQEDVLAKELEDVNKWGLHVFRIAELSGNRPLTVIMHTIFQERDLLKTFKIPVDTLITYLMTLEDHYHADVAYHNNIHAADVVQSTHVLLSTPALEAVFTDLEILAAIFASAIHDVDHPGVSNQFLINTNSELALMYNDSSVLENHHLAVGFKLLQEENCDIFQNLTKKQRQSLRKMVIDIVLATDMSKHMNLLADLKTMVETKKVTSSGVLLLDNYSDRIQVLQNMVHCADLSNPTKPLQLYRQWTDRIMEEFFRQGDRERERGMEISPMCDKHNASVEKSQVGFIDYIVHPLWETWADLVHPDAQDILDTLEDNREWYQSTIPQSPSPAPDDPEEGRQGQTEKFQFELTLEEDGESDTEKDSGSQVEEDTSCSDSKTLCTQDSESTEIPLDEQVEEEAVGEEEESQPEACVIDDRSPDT
Histamine H3 receptor, sequence (Q9Y5N1 whole entry): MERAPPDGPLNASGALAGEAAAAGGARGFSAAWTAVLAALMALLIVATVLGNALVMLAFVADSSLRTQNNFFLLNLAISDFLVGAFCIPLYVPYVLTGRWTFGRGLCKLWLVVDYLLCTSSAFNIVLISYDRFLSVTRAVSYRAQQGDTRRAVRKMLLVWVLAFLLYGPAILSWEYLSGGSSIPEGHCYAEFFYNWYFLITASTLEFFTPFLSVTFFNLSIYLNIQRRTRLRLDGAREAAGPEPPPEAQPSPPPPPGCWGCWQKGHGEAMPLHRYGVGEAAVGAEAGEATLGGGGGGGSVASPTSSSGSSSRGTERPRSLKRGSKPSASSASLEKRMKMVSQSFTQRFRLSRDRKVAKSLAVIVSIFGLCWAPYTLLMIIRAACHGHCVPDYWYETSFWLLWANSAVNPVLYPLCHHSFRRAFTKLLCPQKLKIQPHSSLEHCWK

What is called AC50 is the midpoint of the concentration-response curve, whichever way the signal moves. For `COC(=O)N[C@H](C(=O)N[C@@H](Cc1ccccc1)[C@@H](O)CN(Cc1ccc(-c2ccccn2)cc1)NC(=O)[C@@H](NC(=O)OC)C(C)(C)C)C(C)(C)C` [ATAZANAVIR], the AC50 on Adenosine receptor A1 is greater than 30 µM; on Adenosine receptor A3 it was greater than 30 µM; in experiment [1] it was greater than 10 µM; in [2], greater than 10 µM; in experiment [3], greater than 10 µM; in [4], greater than 10 µM. The AC50 in experiment [5] is greater than 10 µM; in experiment [6], greater than 30 µM; in experiment [7], greater than 30 µM; in experiment [8], greater than 10 µM; at Mu-type opioid receptor, greater than 30 µM; at D(3) dopamine receptor it was greater than 30 µM. On Histamine H3 receptor, this molecule registered an AC50 greater than 10 µM.
Take `CC(C)NCC(O)COc1ccc(COCCOC(C)C)cc1` (stereo not drawn) [BISOPROLOL]: the AC50 was greater than 30 µM at Adenosine receptor A1; greater than 30 µM at Adenosine receptor A3; greater than 10 µM in experiment [1]; greater than 10 µM in experiment [2]; greater than 30 µM in experiment [3]; greater than 10 µM in experiment [4]. Also, the AC50 is greater than 10 µM in experiment [5]; greater than 10 µM in [6]; greater than 30 µM in [7]; greater than 30 µM in [8]; greater than 10 µM on Mu-type opioid receptor; greater than 30 µM at D(3) dopamine receptor. The same molecule registered an AC50 on Histamine H3 receptor greater than 10 µM.
As to `CCC[C@@H]1C[C@@H](C(=O)N[C@@H]([C@H]2O[C@H](SC)[C@H](O)[C@@H](O)[C@H]2O)[C@H](C)Cl)N(C)C1` [CLINDAMYCIN], the AC50 was greater than 30 µM at Adenosine receptor A1; greater than 30 µM on Adenosine receptor A3; 3.42 µM in experiment [1]; greater than 10 µM in experiment [2]; greater than 30 µM at Cannabinoid receptor 1; greater than 10 µM in [4]. For the same molecule, the AC50 in experiment [5] is greater than 10 µM; in [6] it was greater than 30 µM; in [7] it was greater than 30 µM; in [8], greater than 30 µM; on Mu-type opioid receptor it was greater than 30 µM; on D(3) dopamine receptor, greater than 10 µM. The concentration at half-maximal activity (AC50) at Histamine H3 receptor is greater than 10 µM.
`NC(N)=Nc1nc(CSCCC(N)=NS(N)(=O)=O)cs1` [FAMOTIDINE]: the AC50 at Adenosine receptor A1 is greater than 30 µM; at Adenosine receptor A3 it was greater than 30 µM; in [1] it was greater than 10 µM; in [2] it was greater than 10 µM; at Cannabinoid receptor 1 it was greater than 30 µM; in experiment [4], greater than 10 µM. The AC50 is greater than 10 µM in experiment [5]; greater than 10 µM in experiment [6]; greater than 10 µM in [7]; greater than 30 µM in experiment [8]; greater than 10 µM at Mu-type opioid receptor; greater than 10 µM on D(3) dopamine receptor. This molecule also registered an AC50 on Histamine H3 receptor greater than 10 µM.
In the case of `C[C@@H]1O[C@@H]1P(=O)(O)O` [FOSFOMYCIN], the AC50 (at Adenosine receptor A1; on Adenosine receptor A3; in experiment [1]; in experiment [2]; in [3]; in [4]) was greater than 10 µM throughout. Further, the AC50 is greater than 10 µM in experiment [5]; greater than 30 µM in experiment [6]; greater than 30 µM in experiment [7]; greater than 10 µM in experiment [8]; greater than 30 µM at Mu-type opioid receptor; greater than 30 µM at D(3) dopamine receptor.
On to `CN1C(=O)CC(C)(c2ccccc2)C1=O` (stereo not drawn) [METHSUXIMIDE], for which the AC50 is greater than 10 µM on Adenosine receptor A1; greater than 10 µM on Adenosine receptor A3; greater than 30 µM in experiment [1]; greater than 10 µM in experiment [2]; greater than 10 µM in experiment [3]; greater than 10 µM in [4]. The AC50 in experiment [5] was greater than 10 µM; in experiment [6], greater than 30 µM; in experiment [7], greater than 30 µM; in experiment [8], greater than 10 µM; on Mu-type opioid receptor, greater than 30 µM; on D(3) dopamine receptor, greater than 30 µM.
With `CCN(CC)CCNC(=O)c1cc(Cl)c(N)cc1OC` [METOCLOPRAMIDE], the AC50 was greater than 30 µM at Adenosine receptor A1; greater than 30 µM on Adenosine receptor A3; greater than 10 µM in experiment [1]; greater than 10 µM in experiment [2]; greater than 30 µM at Cannabinoid receptor 1; greater than 10 µM in experiment [4]. Further, the AC50 in [5] is 4.3 µM; in [6], 3.55 µM; in [7], greater than 30 µM; in experiment [8], greater than 30 µM; at Mu-type opioid receptor it was greater than 30 µM; on D(3) dopamine receptor it was 0.076 µM. This molecule had an AC50 at Histamine H3 receptor greater than 10 µM.
`CC[C@H](C)C(=O)O[C@H]1C[C@H](O)C=C2C=C[C@H](C)[C@H](CC[C@@H](O)C[C@@H](O)CC(=O)O)[C@H]21` [PRAVASTATIN]: the AC50 on Adenosine receptor A1 is greater than 30 µM; on Adenosine receptor A3, greater than 30 µM; in experiment [1], greater than 10 µM; in experiment [2], greater than 10 µM; at Cannabinoid receptor 1 it was greater than 30 µM; in [4] it was greater than 30 µM. Besides, the AC50 (in experiment [5]; in experiment [6]; in [7]; in experiment [8]; at Mu-type opioid receptor; at D(3) dopamine receptor) was greater than 30 µM throughout. The same molecule yielded an AC50 at Histamine H3 receptor greater than 30 µM.
Consider `CC(C(=O)O)c1ccc(C(=O)c2cccs2)cc1` (stereo not drawn) [SUPROFEN], for which the AC50 (on Adenosine receptor A1; on Adenosine receptor A3; in experiment [1]; in experiment [2]; in experiment [3]; in experiment [4]) was greater than 10 µM each time. Further, the AC50 is greater than 10 µM in [5]; greater than 30 µM in experiment [6]; greater than 30 µM in experiment [7]; 0.284 µM in experiment [8]; greater than 30 µM on Mu-type opioid receptor; greater than 30 µM at D(3) dopamine receptor. This molecule registered an AC50 at Histamine H3 receptor greater than 10 µM.
On to `Cc1ccc(C(=O)c2cc(O)c(O)c([N+](=O)[O-])c2)cc1` [TOLCAPONE], for which the AC50 is 15.6 µM on Adenosine receptor A1; 11.9 µM on Adenosine receptor A3; 14.6 µM in [1]; greater than 10 µM in experiment [2]; greater than 10 µM in experiment [3]; greater than 10 µM in experiment [4]. In addition, the half-maximal activity concentration (AC50) is greater than 10 µM in experiment [5]; greater than 10 µM in experiment [6]; greater than 30 µM in experiment [7]; 12.7 µM in [8]; greater than 30 µM on Mu-type opioid receptor; greater than 30 µM at D(3) dopamine receptor. The AC50 on Histamine H3 receptor was greater than 10 µM.
